# Source: patent US6416735B1 (priority 1999, dated 2002)
# Structures can show the parent of a compound that is named as a salt. Where two headings read alike, the source gives them in different places.
# Experiments:
# α7 nAChR = α7 nAChR (Rattus norvegicus, UniProt Q05941); assay: biochemical; format: binding
# [1] = in vivo; cited from earlier work
# α4β2 nAChRs = α4β2 nAChRs (Rattus norvegicus, UniProt P09483+P12390); assay: biochemical; format: binding
# [2] = read-out: KI, inhibition of [^125I]Iodo-MLA binding
# α7 nAChR, sequence (Q05941 23-502): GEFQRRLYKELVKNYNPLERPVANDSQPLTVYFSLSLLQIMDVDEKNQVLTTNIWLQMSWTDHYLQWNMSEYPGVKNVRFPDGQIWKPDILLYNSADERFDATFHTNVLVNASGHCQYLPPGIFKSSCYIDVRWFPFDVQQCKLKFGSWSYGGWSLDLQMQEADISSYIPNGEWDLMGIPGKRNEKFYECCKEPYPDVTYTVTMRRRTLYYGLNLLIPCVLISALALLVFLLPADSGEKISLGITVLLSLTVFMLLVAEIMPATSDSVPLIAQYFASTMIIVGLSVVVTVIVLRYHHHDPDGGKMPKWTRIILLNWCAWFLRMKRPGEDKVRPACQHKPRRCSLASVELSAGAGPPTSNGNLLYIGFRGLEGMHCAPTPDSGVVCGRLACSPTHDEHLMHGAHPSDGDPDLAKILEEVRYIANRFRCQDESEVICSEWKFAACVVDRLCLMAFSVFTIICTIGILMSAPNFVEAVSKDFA
# α4β2 nAChRs, sequence (P12390 25-500): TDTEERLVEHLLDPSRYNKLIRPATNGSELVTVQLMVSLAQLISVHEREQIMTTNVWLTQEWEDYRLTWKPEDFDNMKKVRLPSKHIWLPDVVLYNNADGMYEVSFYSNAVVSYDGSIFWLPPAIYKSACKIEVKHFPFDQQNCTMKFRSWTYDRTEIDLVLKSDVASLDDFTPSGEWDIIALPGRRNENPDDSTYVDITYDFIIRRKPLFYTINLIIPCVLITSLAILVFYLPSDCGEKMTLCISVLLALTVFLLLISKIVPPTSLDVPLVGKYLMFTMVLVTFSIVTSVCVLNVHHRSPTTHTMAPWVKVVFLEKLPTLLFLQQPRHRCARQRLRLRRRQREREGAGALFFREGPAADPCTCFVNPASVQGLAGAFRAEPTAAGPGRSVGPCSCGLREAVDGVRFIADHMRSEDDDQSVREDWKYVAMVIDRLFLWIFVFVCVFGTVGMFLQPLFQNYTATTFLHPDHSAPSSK
# α4β2 nAChRs, sequence (P09483 31-630): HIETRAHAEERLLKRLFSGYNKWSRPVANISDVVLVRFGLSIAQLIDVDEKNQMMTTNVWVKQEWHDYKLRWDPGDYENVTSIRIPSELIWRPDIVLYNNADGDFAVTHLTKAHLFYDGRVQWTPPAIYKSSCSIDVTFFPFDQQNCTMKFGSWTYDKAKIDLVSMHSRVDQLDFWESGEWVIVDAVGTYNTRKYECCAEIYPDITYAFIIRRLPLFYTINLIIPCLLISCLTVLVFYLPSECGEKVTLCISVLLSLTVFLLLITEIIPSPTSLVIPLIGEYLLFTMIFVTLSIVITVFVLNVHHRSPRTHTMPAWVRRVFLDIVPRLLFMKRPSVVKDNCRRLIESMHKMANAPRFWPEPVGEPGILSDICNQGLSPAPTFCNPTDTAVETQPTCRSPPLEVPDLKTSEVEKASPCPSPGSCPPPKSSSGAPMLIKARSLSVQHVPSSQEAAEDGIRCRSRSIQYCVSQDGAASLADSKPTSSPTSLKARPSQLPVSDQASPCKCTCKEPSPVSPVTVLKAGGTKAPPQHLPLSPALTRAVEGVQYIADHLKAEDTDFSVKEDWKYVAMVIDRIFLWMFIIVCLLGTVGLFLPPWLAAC
compound,measurement,setting,value
C(=Cc1ccccc1)C=C1CCCN=C1c1cccnc1 [3-Cinnamylidene-anabasine],Ki,α7 nAChR; [2],15.3 ± 2 nM
CNC1(C)C2CCC(C2)C1(C)C (stereo not shown) [Mecamylamine],Ki,α7 nAChR,> 10000 nM
same,displacing [^125I]iodo-MLA (in words),α7 nAChR,weak or ineffective
"CCN1C[C@]2(COC(=O)c3ccccc3N3C(=O)C[C@H](C)C3=O)CC[C@H](OC)[C@@]34[C@@H]5C[C@H]6[C@H](OC)[C@@H]5[C@](O)(C[C@@H]6OC)[C@@](O)([C@@H](OC)[C@H]23)[C@@H]14 [MLA, Methyllycaconitine]",crossing of the blood-brain barrier,[1],crosses the blood-brain barrier
α-Bungarotoxin,Ki for displacing [^125I]iodo-MLA (in words),α7 nAChR,low nanomolar range
same,Ki,α7 nAChR; [2],2 ± 0.1 nM
same,crossing of the blood-brain barrier,[1],does not cross the blood-brain barrier
"CN1CCCC1c1cccnc1 (single isomer, unassigned; (-)) [(-)-Nicotine]",displacing [^125I]iodo-MLA (in words),α7 nAChR,weak or ineffective
"CCN1CC2(COC(=O)c3cc(I)ccc3N3C(=O)CC(C)C3=O)CCC(OC)C34C5CC6C(OC)CC(O)(C5C6OC)C(O)(C(OC)C23)C14 (stereo not shown) (as salt: citrate) [iodo-MLA, Iodo-methyllycaconitine]",melting point,,115 to 116 °C
CO[C@H]1CC=C2CCN3CCC4=C(CC(=O)OC4)[C@]23C1 [Dihydro-β-erythroidine],displacing [^125I]iodo-MLA (in words),α7 nAChR,weak or ineffective
same,Ki,α7 nAChR; [2],> 10000 nM
"CCN1CC2(COC(=O)c3cc(I)ccc3N3C(=O)CC(C)C3=O)CCC(OC)C34C5CC6C(OC)CC(O)(C5C6OC)C(O)(C(OC)C23)C14 (stereo not shown) [iodo-MLA, Iodo-methyllycaconitine]",Ki,α4β2 nAChRs,> 1000 nM
same,affinity at α4β2 nAChRs (in words),α4β2 nAChRs,poor affinity
